Experimental data published in patent US20240118281A1, “ANTICANCER COMPOUNDS AND USES THEREOF” (University of Florida Research Foundation, Incorporated, priority 2021, published 2024).

Tests used:
[1] = test system: ERAP1; test: ERAP1 retention/secretion in MDA-MB-468 cells, immunoblot; format: cell-based; conditions: MDA-MB-468 stable cell lines expressing ERp44, 24 h, FIG. 4E
Source text: (§1) The BT20, BT474, BT549, MCF7, MDA-MB-231, MDA-MB-436, MDA-MB-468, HCC1143, HCC1500, HCC1569, HCC1937, HCC1954, Hs578t, and T47D cells lines were purchased from American Type Culture Collection (ATCC) (Manassas, VA). The HCI-001 cell line was derived from an ER-/PR-/HER2- patient-derived xenograft originally isolated from a patient as described previously (DeRose Y S, et al. Nat Med 2011; 17: 1514-1520). The HCI-001/LVM2 model was derived from the HCI-001 cell line by performing two rounds of selection for liver metastasis, as described previously (Wang M, et al. Cell Death Discovery 2019; 5: 153). Cell lines were grown in Dulbecco's Modified Eagle's Medium (GE Healthcare Life Sciences, Logan, UT) containing 10% fetal bovine serum (10% FBS—DMEM) in a humidified incubator with 5% CO2 at 37° C. Cell lysates were prepared as described previously (Law B K, et al. Mol Cell Biol. 2002; 22: 8184-8198). Immunoblot analysis was performed utilizing the following antibodies purchased from Cell Signaling Technology (Beverly, MA) [Akt, #4691; P-Akt[T308], #13038; ATF4, #11815; CHOP, #2895; Cleaved Caspase 8, #9496; DR4, #42533; DR5, #8074; EGFR, #4267; GRP78, #3177; HER3, #4754; PARP, #9532; PDIA1, #3501; XBP1s, #12782], from Santa Cruz Biotechnology (Santa Cruz, CA) [Actin, sc-47778; AGR2/3, sc-376653; AGR3, sc-390940; ERO1-a, sc-100805; and ERp44, sc-393687], or from Rockland Immunochemicals, Inc. (Limerick, PA), Streptavidin-Alkaline Phosphatase conjugated (SA-AP), S000-05.
(§2) To assess protein disulfide bond-mediated oligomerization, cells were treated with DDAs for 24 h in 10% FBS-DMEM. Cells were subsequently scraped directly into the media and pelleted by centrifugation. Cells were extracted directly into boiling 2×-SDS-Sample Buffer containing 100 mM NEM and boiled for 10 min. Samples were sonicated, followed by centrifugation for 20 min at room temperature. Samples were subsequently analyzed by SDS-PAGE and immunoblot.

[2] = test system: MDA-MB-468 cells; test: Cell viability (MTT) assay; format: cell-based; conditions: FIG. 1D
Description: MTT (3-(4,5-dimethylthiazol-2-yl)-2,5-diphenyltetrazolium bromide) (Biomatik, Wilmington, DE) assays were performed by plating 7,500 cells/well in 10% FBS/DMEM in a 96-well plate, followed by incubation at 37° C. for 24 h. Cells were then treated with vehicle or increasing concentrations of tcyDTDO, dMtcyDTDO, or dFtcyDTDO and incubated at 37° C. for 72 h. Cell media was subsequently removed from each well and MTT assays were initiated by incubating cells with 0.5 mg/ml MTT in PBS for 3 h, followed by removal of the MTT solution and addition of 100 µL of DMSO to each well for 30 min. Absorbance of the MTT formazan product was subsequently measured at 570 and 690 (reference) nm in a plate reader.

[3] = test system: HER2+ BT474 xenograft tumors; test: BT474 xenograft tumor study, H&E staining of mammary fat pads/tumors; format: in vivo, mice; conditions: 20 mg/kg intraperitoneal, four consecutive days; vehicle tumors showed no necrosis
Description: Breast cancer liver metastasis was initiated in NOD-SCID-gamma (NSG) mice obtained from Jackson Laboratories (Bar Harbor, ME) by injecting 1×10^6 cancer cells into the #4 mammary fat pads as described previously (Wang M, et al. Cell Death Discovery 2019; 5: 153). Mice bearing HCI-001/LVM2 breast tumors were treated once daily for four consecutive days with 20 mg/kg tcyDTDO by oral gavage and livers were collected. Animals bearing HER2+ BT474 tumors were treated with the vehicle or 20 mg/kg dMtcyDTDO or dFtcyDTDO by intraperitoneal injection for four consecutive days. Tissue samples fixed in 4% paraformaldehyde/PBS and paraffin-embedded were sectioned and stained with hematoxylin and eosin (H&E) by the University of Florida Molecular Pathology Core (https://molecular.pathology.ufl.edu/).

[4] = target: T1, ERp44 (Homo sapiens, UniProt Q9BS26); test: ERp44 disulfide bonding with client proteins, non-reducing immunoblot; format: cell-based; set-up: endogenous in cells; host or cells: MDA-MB-468; conditions: MDA-MB-468 cells overexpressing wild type ERp44, 7.5 μM, 24 h, FIG. 6B
T1 sequence (Q9BS26 30-406): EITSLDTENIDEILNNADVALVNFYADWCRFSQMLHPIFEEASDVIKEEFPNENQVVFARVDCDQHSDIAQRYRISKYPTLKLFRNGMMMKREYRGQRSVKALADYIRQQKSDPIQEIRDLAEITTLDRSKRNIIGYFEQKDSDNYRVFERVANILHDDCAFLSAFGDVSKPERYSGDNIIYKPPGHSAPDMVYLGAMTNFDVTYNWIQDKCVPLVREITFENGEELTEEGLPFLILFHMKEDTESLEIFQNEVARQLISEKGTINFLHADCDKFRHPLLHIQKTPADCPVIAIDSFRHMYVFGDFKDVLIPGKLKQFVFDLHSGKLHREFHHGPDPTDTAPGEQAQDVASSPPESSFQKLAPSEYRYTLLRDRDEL
Description: as §2

[5] = test system: EGFR; test: Disulfide bond-mediated oligomerization, non-reducing immunoblot; format: cell-based; conditions: MDA-MB-468 cells, 24 h, FIG. 1E right
Source text: as §1, §2

[6] = test system: DR4; test: as above; format: cell-based; conditions: MDA-MB-468 cells, 24 h
Source text: as §1, §2

[7] = test system: GRP78; test: Endoplasmic reticulum stress (ERS) induction, immunoblot; format: cell-based; conditions: MDA-MB-468 cells, 24 h
Source text: as §1, §2

[8] = test system: DR5; test: Disulfide bond-mediated oligomerization and levels, non-reducing immunoblot; format: cell-based; conditions: MDA-MB-468 cells, 24 h
Source text: as §1, §2

[9] = target: T2, ERp44 (Homo sapiens, UniProt Q9BS26, S61C); test: ERp44 disulfide bonding with client proteins, non-reducing immunoblot; format: cell-based; conditions: MDA-MB-468 cells overexpressing ERp44[S61C], 7.5 μM, 24 h, FIG. 6B
T2 construct: endogenous in cells; host or cells: MDA-MB-468
Description: as §2

[10] = compared with tcyDTDO, FIG. 1E left

T2 sequence (Q9BS26 30-406 S61C): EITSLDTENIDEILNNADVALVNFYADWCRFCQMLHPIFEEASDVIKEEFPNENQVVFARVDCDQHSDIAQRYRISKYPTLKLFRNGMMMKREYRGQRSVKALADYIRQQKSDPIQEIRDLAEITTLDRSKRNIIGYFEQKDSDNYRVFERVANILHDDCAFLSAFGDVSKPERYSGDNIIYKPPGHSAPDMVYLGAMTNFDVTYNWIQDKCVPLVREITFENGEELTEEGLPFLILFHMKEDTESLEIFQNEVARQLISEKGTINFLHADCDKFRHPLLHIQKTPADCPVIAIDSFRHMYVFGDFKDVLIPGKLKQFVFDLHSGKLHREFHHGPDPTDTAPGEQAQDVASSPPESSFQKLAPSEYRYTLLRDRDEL

SMILES: O=S1(=O)CC2CC(F)C(F)CC2CS1 (centres unmarked) [dFtcyDTDO, difluoro-tcyDTDO]
- ERAP1-ERp44 disulfide-bonded dimer [1]: reduced
- Potency in cell viability assays relative to tcyDTDO [2]: approximately two-fold greater potency than tcyDTDO
- Tumors in mammary fat pads, H&E histology [3]: tumors were not observed
- Disulfide bonding of overexpressed ERp44 to client proteins [4]: partially blocked
- Concentration at which disulfide-mediated oligomerization of EGFR was detected [5]: 625 nM
- Concentration at which disulfide-mediated oligomerization of DR4 was detected ([6]; FIG. 1E right): 625 nM
- DR4/5 oligomerization at the same concentration (DR4) [6, 10]: more DR4/5 oligomerization
- Concentration at which induction of ERS (GRP78 elevation) was detected ([7]; FIG. 1E right): 625 nM
- ERS at the same concentration [7, 10]: greater ERS
- DR5 upregulation in cells overexpressing C58S or S61C ERp44 mutants ([8]; 7.5 μM, FIG. 6B): potentiated DR5 upregulation
- Concentration at which oligomerization of DR5 was observed ([8]; FIG. 1E right): 1.25 µM
- DR4/5 oligomerization at the same concentration (DR5) [8, 10]: more DR4/5 oligomerization
- DR5 levels at the same concentration [8, 10]: higher DR5 levels
- Disruption of S61C ERp44 mutant binding to its clients, versus wild type [9]: less sensitive to disruption of binding to its clients
